From paper PMC6709224, “PIM-Related Kinases Selectively Regulate Olfactory Sensations in Caenorhabditis elegans” (eNeuro, 2019)

Columns and labels:
Format in all cases: biochemical
[1] = biological target: T1, PRK-2 (Caenorhabditis elegans, UniProt Q20443); experiment: radioactive in vitro kinase assay (autophosphorylation and NFATC1 […]-418 phosphorylation); conditions: 10 µM inhibitor, 10-20 min pre-incubation, gamma-32P-ATP, 0.1% DMSO control
T1 construct: full-length, GST fusion in pGEX-6P-2, expressed in bacteria
T1 sequence (Q20443 1-441): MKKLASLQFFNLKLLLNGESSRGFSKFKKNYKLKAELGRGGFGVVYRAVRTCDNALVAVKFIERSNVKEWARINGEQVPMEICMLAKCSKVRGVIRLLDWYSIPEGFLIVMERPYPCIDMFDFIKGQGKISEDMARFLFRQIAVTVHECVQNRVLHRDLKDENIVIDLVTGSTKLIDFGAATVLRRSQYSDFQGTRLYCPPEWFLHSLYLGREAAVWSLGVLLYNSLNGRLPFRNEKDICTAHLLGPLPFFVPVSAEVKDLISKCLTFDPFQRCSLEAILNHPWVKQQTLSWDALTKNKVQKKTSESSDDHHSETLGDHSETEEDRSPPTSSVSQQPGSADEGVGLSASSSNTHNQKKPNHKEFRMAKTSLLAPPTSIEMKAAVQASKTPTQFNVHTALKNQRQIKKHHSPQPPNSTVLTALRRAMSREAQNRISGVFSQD

[2] = biological target: T2, PIM-1 (Homo sapiens, UniProt P11309); experiment: as above; conditions: 10 µM inhibitor, 10-20 min pre-incubation, gamma-32P-ATP, 0.1% DMSO control
T2 construct: gene PIM1; full-length short isoform (313 residues, recalled), GST fusion expressed in bacteria
T2 sequence (P11309 whole entry, the tested form may be a part, canonical isoform): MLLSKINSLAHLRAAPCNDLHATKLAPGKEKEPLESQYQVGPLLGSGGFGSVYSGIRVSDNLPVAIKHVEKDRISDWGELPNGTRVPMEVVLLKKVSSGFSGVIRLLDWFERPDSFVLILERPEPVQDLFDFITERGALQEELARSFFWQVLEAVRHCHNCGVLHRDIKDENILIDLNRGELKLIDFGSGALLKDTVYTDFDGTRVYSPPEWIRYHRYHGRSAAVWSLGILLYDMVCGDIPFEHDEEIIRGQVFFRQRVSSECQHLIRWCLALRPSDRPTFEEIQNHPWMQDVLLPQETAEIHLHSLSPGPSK

[3] = biological target: T2, PIM-1; experiment: radioactive in vitro kinase assay, autoradiography; conditions: labelled compound; autophosphorylation and GST-NFATC1 (1-418) as acceptor
[4] = biological target: T1, PRK-2; experiment: radioactive in vitro kinase assay, autoradiography; conditions: labelled compound; autophosphorylation and GST-NFATC1 (1-418) as acceptor

Compound	relative phosphorylation at 10 μM [1]	relative phosphorylation at 10 μM [2]	radioactive in vitro kinase assay, autoradiography [3]	radioactive in vitro kinase assay, autoradiography [4]
O=Cc1c[nH]c2c1ccc1c3ccccc3[nH]c12 [DHPCC-9]	DHPCC-9 was able to inhibit autophosphorylation of not only PIM-1, but also PRK-2	DHPCC-9 was able to inhibit autophosphorylation of not only PIM-1, but also PRK-2	–	–
Nc1ncnc2c1ncn2[C@@H]1O[C@H](COP(=O)(O)OP(=O)(O)OP(=O)(O)O)[C@@H](O)[C@H]1O [γ-32P-ATP]	–	–	both PIM-1 and PRK-2 were able to autophosphorylate themselves	both PIM-1 and PRK-2 were able to autophosphorylate themselves
